Laboratory results reported in ChEMBL document CHEMBL1268846, “Synthesis and antiproliferative evaluation of N,N-disubstituted-N'-[1-aryl-1H-pyrazol-5-yl]-methnimidamides” (2010).
Blank lines part the entries; values can stand above or below the compound they belong to.

Tests used:
Assay type in all cases: functional
NCI-H661 = experiment: Growth inhibition of human NCI-H661 cells after 72 hrs by MTT assay; conditions: NCI-H661, 72 h
Jurkat = experiment: Growth inhibition of human Jurkat cells after 72 hrs by MTT assay
[1] = Growth inhibition of human NPC-TW01 cells after 72 hrs by MTT assay; conditions: NPC-TW01, 72 h

Structure (SMILES): CN(C)/C=N/c1c(C=O)c(-c2ccccc2)nn1-c1cccc(Cl)c1
GI50 (NCI-H661): 6.9 µM | GI50 (Jurkat): 8.3 µM | GI50 [1]: 6.4 µM

Structure (SMILES): CN(C)/C=N/c1c(C=O)c(-c2ccccc2)nn1-c1cccc([N+](=O)[O-])c1
GI50 (NCI-H661): 50 µM | GI50 (Jurkat): > 50 µM | GI50 [1]: 36.7 µM

Structure (SMILES): COc1ccc(-n2nc(-c3ccccc3)c(C=O)c2/N=C/N(C)C)cc1
GI50 (NCI-H661): 33.4 µM | GI50 (Jurkat): 19.7 µM | GI50 [1]: 20.2 µM

Structure (SMILES): CN(C)/C=N/c1c(C=O)c(-c2ccc(Cl)cc2)nn1-c1ccccc1
GI50 (NCI-H661): 8.6 µM | GI50 (Jurkat): 7.9 µM | GI50 [1]: 8.1 µM

Structure (SMILES): COc1ccc(-c2nn(-c3ccccc3)c(/N=C/N(C)C)c2C=O)cc1
GI50 (NCI-H661): 9.9 µM | GI50 (Jurkat): 12.5 µM | GI50 [1]: 27.2 µM

Structure (SMILES): O=Cc1c(-c2ccccc2)nn(-c2ccccc2)c1/N=C/N1CCCC1
GI50 (NCI-H661): 17.6 µM | GI50 (Jurkat): 31.3 µM | GI50 [1]: > 50 µM

Structure (SMILES): CC/C(=N\c1cc(-c2ccccc2)nn1-c1ccccc1)NC
GI50 (NCI-H661): > 50 µM | GI50 (Jurkat): > 50 µM | GI50 [1]: > 50 µM

Structure (SMILES): C/C(=N\c1cc(-c2ccccc2)nn1-c1ccccc1)N(C)C
GI50 (NCI-H661): 35.1 µM | GI50 (Jurkat): > 50 µM | GI50 [1]: > 50 µM

Structure (SMILES): CN(C)/C(=N/c1cc(-c2ccccc2)nn1-c1ccccc1)c1ccccc1
GI50 (NCI-H661): 46.7 µM | GI50 (Jurkat): 36.1 µM | GI50 [1]: 20.8 µM

Now from value to compound, other results behind:

GI50 (NCI-H661): 31.4 µM | GI50 (Jurkat): 23.5 µM
Structure (SMILES): CN(C)/C=N/c1c(C=O)c(-c2ccccc2)nn1-c1ccccc1
GI50 [1]: 9.3 µM

GI50 (NCI-H661): 31.4 µM | GI50 (Jurkat): 26.3 µM
Structure (SMILES): CN(C)/C=N/c1c(C=O)c(-c2ccccc2)nn1-c1ccccc1Cl
GI50 [1]: 23.3 µM

GI50 (NCI-H661): 31 µM | GI50 (Jurkat): 9.7 µM
Structure (SMILES): Cc1cccc(-n2nc(-c3ccccc3)c(C=O)c2/N=C/N(C)C)c1
GI50 [1]: 8.9 µM

GI50 (NCI-H661): 6.7 µM | GI50 (Jurkat): 7.3 µM
Structure (SMILES): CN(C)/C=N/c1c(C=O)c(-c2ccccc2)nn1-c1ccc(Br)cc1
GI50 [1]: 7.4 µM

GI50 (NCI-H661): 11.9 µM | GI50 (Jurkat): 9.5 µM
Structure (SMILES): Cc1ccc(-c2nn(-c3ccccc3)c(/N=C/N(C)C)c2C=O)cc1
GI50 [1]: 9.7 µM

GI50 (NCI-H661): 42.8 µM | GI50 (Jurkat): 43.5 µM
Structure (SMILES): CN(C)/C=N/c1c(C=O)c(C(C)(C)C)nn1-c1ccccc1
GI50 [1]: > 50 µM

GI50 (NCI-H661): 28.8 µM | GI50 (Jurkat): 30 µM
Structure (SMILES): CCN(/C=N/c1c(C=O)c(-c2ccccc2)nn1-c1ccccc1)CC
GI50 [1]: 30.5 µM

GI50 (NCI-H661): 17.7 µM | GI50 (Jurkat): 29 µM
Structure (SMILES): O=Cc1c(-c2ccccc2)nn(-c2ccccc2)c1/N=C/N1CCCCC1
GI50 [1]: 24.4 µM

GI50 (NCI-H661): > 50 µM | GI50 (Jurkat): > 50 µM
Structure (SMILES): CN/C=N/c1cc(-c2ccccc2)nn1-c1ccccc1
GI50 [1]: > 50 µM

GI50 (NCI-H661): > 50 µM | GI50 (Jurkat): > 50 µM
Structure (SMILES): CN/C(C)=N/c1cc(-c2ccccc2)nn1-c1ccccc1
GI50 [1]: > 50 µM
